Reference: US9840509B2, “Heterocyclic compounds” (CADILA HEALTHCARE LIMITED, priority 2014, dated 2017)

Experiments:
[1] = molecular target: T1, recombinant purified human BTK (Homo sapiens, UniProt Q06187); assay: In vitro BTK kinase assay on ADP Glo platform; assay type: biochemical; details: 2 hr room temperature, read-out: In-vitro BTK inhibitory activity: IC50
T1 construct: purchased SignalChem, USA
Method in brief: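 Recombinant human BTK (3 ng/reaction) with compound dilutions in Tris pH 7.5, MgCl2/MnCl2, BSA, DTT; started with 50 µM ATP (final) and polyGln4Tyr1 substrate, 2 h at room temperature. ADP formed detected by ADP-Glo luminescence; IC50 by nonlinear fit versus uninhibited enzyme as 100%.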

CYP 2C8 = molecular target: T2, CYP 2C8 (Homo sapiens, UniProt P10632); assay: CYP inhibition in human liver microsomes, 2C8; assay type: in vitro ADME; details: pH 7.4, @ 10 μM concn
T2 construct: from tissue; host or cells: human liver microsomes
T2 sequence (P10632 1-490): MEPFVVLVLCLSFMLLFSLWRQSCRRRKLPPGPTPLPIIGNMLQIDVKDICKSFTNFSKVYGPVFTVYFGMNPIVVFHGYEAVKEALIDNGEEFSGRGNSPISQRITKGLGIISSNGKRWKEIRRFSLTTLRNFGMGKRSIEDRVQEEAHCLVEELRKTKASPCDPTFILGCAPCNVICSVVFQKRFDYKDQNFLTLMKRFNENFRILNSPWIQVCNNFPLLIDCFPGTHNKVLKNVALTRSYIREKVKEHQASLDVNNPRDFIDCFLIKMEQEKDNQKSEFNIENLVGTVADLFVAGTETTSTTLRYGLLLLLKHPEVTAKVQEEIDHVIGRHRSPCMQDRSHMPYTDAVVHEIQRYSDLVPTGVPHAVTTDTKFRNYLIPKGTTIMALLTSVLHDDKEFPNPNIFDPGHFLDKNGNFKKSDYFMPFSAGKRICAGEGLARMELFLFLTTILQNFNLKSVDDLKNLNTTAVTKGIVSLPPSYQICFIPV
Method in brief: (§1)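 Test compounds at […] and 10 μM were incubated in duplicate with human liver microsomes, probe substrate and 1 mM NADPH in 100 mM phosphate buffer pH 7.4 at 37° C. Reactions were stopped with acetonitrile containing internal standard, and the marker-reaction metabolite was quantified by LC-MS/MS.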

CYP 2D6 = molecular target: T3, CYP 2D6 (Homo sapiens, UniProt P10635); assay: CYP inhibition in human liver microsomes, 2D6; assay type: in vitro ADME; details: pH 7.4, @ 10 μM concn
T3 construct: from tissue; host or cells: human liver microsomes
Method in brief: as §1

CYP 3A4 = molecular target: T4, CYP 3A4 (Homo sapiens, UniProt P08684); assay: CYP inhibition in human liver microsomes, 3A4; assay type: in vitro ADME; details: pH 7.4, @ 10 μM concn
T4 construct: from tissue; host or cells: human liver microsomes
Method in brief: as §1

CIA Arthritis Model = assay: Collagen induced arthritis (CIA) study in mice; assay type: in vivo; details: Dose: 10 mpk, po, Mean ± SD, n = 8
Experimental: All the animal experiments were carried out in female rats and mice, bred in-house. Animals were housed in groups of 6 animals per cage, for a week, in order to habituate them to vivarium conditions (25±4° C., 60-65% relative humidity, 12: 12 h light: dark cycle, with lights on at 7.30 am). All the animal experiments were carried out according to the internationally valid guidelines following approval by the ‘Zydus Research Center animal ethical committee’.
Protocol for Collagen Induced Arthritis (CIA) Study in Mice
CIA is a frequently used animal model of human RA (Courtenay, J. S., Dallman, M. J., Dayan, A. D., Martin, A. and Mosedale, B., Nature, 1980, 283, 666-668; Bevaart, L., Vervoordeldonk, M. J., Tak, P. P., Methods Mol. Biol., 2010, 602, 181-192). Following 7 days acclimation, mice were randomly assigned to groups according body weight. Mice were immunized subcutaneously in the tail using bovine type II collagen mix in complete Freund's adjuvant (CFA). Twenty-one days after the first immunization, mice were given booster dose of collagen in incomplete Freund's adjuvant (IFA). Mice were monitored every other day after the booster dose for the development of arthritis. Mice were recruited for the study once clinical signs were visible. Eight animals were assigned each of three groups [vehicle, positive control and test compounds] and treatment was continued for four weeks and percentage inhibition in clinical score is recorded as per graded score. Body weights of the animals were also recorded 3 times a week as a measure of treatment related side effect, paw thickness measured twice a week and blood serum are collected at termination for cytokines profile.

T4 sequence (P08684 whole entry): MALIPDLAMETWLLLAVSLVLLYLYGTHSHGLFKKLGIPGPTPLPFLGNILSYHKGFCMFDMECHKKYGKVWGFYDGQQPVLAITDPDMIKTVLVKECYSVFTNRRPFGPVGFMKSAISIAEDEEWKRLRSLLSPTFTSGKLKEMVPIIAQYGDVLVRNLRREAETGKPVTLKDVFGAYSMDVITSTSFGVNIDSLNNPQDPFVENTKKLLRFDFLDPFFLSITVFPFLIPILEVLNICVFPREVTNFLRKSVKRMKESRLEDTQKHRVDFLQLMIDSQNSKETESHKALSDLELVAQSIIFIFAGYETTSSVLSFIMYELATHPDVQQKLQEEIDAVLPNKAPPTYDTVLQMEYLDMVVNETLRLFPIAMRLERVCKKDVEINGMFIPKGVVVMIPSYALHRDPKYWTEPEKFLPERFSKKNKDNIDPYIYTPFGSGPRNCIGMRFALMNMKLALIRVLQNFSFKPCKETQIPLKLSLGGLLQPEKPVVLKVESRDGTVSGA
T3 sequence (P10635 whole entry): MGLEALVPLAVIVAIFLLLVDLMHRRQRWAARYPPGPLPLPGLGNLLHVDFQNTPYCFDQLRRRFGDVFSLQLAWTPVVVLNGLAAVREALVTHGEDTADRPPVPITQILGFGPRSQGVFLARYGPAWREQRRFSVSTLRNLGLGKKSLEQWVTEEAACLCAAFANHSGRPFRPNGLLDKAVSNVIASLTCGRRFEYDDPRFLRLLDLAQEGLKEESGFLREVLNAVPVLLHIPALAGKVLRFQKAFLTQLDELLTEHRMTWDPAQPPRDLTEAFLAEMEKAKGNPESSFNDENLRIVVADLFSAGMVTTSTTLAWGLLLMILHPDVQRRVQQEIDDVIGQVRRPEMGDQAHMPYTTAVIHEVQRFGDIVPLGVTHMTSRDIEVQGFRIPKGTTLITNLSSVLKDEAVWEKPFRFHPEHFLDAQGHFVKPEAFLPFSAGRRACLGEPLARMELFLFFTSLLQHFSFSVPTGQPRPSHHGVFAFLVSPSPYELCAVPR
T1 sequence (Q06187 whole entry): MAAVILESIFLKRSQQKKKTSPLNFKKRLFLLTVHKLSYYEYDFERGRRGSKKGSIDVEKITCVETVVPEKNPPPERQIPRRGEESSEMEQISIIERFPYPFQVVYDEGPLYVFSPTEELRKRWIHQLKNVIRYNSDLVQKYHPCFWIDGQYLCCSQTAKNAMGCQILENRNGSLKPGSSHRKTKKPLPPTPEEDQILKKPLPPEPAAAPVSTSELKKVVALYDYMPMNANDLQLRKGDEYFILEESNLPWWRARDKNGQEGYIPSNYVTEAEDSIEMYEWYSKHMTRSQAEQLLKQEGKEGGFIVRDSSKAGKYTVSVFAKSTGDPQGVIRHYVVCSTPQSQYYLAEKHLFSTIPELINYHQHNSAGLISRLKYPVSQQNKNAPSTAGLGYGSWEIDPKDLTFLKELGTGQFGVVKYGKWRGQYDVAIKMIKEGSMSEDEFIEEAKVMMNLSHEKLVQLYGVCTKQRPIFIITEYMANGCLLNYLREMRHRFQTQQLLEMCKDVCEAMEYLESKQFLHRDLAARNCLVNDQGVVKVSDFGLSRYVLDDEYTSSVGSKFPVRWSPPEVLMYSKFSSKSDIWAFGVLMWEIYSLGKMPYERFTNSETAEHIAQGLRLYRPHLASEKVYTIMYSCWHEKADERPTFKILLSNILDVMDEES

Row | SMILES | IC50 [1] [nM] | inhibition at 10 μM (CYP 2C8) [%] | inhibition at 10 μM (CYP 2D6) [%] | inhibition at 10 μM (CYP 3A4) [%] | % inhibition of clinical score, Day-28, in CIA Arthritis Model (CIA Arthritis Model) [%]
1 | C=CC(=O)N1CC2CC(N3C(=O)N(c4ccc(Oc5ccccc5)cc4)C4C(N)=NC=NC43)CC2C1 (stereo not shown) [Compound 25, 9-(2-acryloyloctahydrocyclopenta[c]pyrrol-5-yl)-6-amino-7-(4-phenoxyphenyl)-5,7-dihydro-4H-purin-8(9H)-one] | 5 | < 50 | < 50 | < 50 | 90.1 ± 6.3
2 | C=CC(=O)N1CC2CC(n3nc(-c4ccc(NC(=O)c5ccccn5)cc4)c4c(N)ncnc43)CC2C1 (stereo not shown) [Compound 32, N-(4-(1-(2-acryloyloctahydrocyclopenta[c]pyrrol-5-yl)-4-amino-1H-pyrazolo[3,4-d]pyrimidin-3-yl)phenyl)picolinamide] | 4 | < 50 | < 50 | > 50 | 100 ± 3.9
3 | C=CC(=O)N1CC2CC(n3nc(-c4ccc(C(=O)Nc5cc(C)ccn5)cn4)c4c(N)ncnc43)CC2C1 (stereo not shown) [Compound 42, 6-(1-(2-acryloyloctahydrocyclopenta[c]pyrrol-5-yl)-4-amino-1H-pyrazolo[3,4-d]pyrimidin-3-yl)-N-(4-methylpyridin-2-yl)nicotinamide] | 0.1 | < 50 | < 50 | < 50 | 100 ± 4.2
4 | C=CC(=O)N1CC2CC(n3nc(-c4ccc(-c5nnc(-c6cnccn6)s5)cc4)c4c(N)ncnc43)CC2C1 (stereo not shown) [Compound 46, 1-(5-(4-amino-3-(4-(5-(pyrazin-2-yl)-1,3,4-thiadiazol-2-yl)phenyl)-1H-pyrazolo[3,4-d]pyrimidin-1-yl)hexahydrocyclopenta[c]pyrrol-2(1H)-yl)prop-2-en-1-one] | 1 | < 50 | < 50 | < 50 | 88 ± 7.1
5 | C=CC(=O)N1CC2CC(n3nc(-c4ccc(C(=O)N(C)c5cc(C)ccn5)cc4)c4c(N)ncnc43)CC2C1 (stereo not shown) [Compound 54, 4-(1-(2-acryloyloctahydrocyclopenta[c]pyrrol-5-yl)-4-amino-1H-pyrazolo[3,4-d]pyrimidin-3-yl)-N-methyl-N-(4-methylpyridin-2-yl)benzamide] | 0.1 | < 50 | < 50 | < 50 | 98 ± 4.5
